Calls of active or inactive are those of the source.
Tests used:
[1] = biological target: T1, Carboxy-terminal domain RNA polymerase II polypeptide A small phosphatase 1 (Homo sapiens, UniProt Q9GZU7); experiment: CTDSP1 inhibitors, concentration-response, biochemical, absorbance readout, ultra-high-throughput screen actives (AID 540297); format: functional
T1 sequence (Q9GZU7 whole entry): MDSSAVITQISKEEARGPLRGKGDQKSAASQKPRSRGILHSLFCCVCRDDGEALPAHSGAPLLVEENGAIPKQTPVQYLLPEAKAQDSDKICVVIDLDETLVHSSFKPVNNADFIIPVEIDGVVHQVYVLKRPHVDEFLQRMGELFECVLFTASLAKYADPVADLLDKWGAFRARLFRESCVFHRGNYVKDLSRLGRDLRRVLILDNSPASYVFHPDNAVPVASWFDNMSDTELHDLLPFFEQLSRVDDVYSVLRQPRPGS

Vero = experiment: viability of Vero cells under compound – cytotoxicity control for flavivirus capping enzyme inhibitors (AID 588742); format: functional; conditions: Chlorocebus sabaeus
Genome polyprotein = Genome polyprotein (dengue virus type 2, UniProt P29990); experiment: flavivirus cap methylation enzyme inhibition – biochemical, confirmation dose response, primary screen (AID 588689); format: functional
[2] = reduction of Shn3 3'UTR-driven luciferase in osteoblasts – cell-based, Clone20 osteoblasts, firefly luciferase, cherry-picked, dose response (AID 624132); format: functional;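 also: firefly luciferase luminescence from reporter carrying the Shn3 3'UTR in osteoblasts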
[3] = loss of viability in HepG2 cells – cell-based, CellTiter-Glo, cherry-picked, cytotoxicity control for Shn3 inhibitor project, dose response (AID 624134); format: functional
[4] = non-specific 3'UTR reporter inhibition in Clone20-Shn3RL – cell-based, Renilla luciferase, cherry-picked, counter-screen for Shn3 inhibitor project, dose response (AID 624133); format: functional
[5] = biological target: T2, Histone-lysine N-methyltransferase NSD2 (Homo sapiens, UniProt O96028); format: biochemical
T2 sequence (O96028 whole entry): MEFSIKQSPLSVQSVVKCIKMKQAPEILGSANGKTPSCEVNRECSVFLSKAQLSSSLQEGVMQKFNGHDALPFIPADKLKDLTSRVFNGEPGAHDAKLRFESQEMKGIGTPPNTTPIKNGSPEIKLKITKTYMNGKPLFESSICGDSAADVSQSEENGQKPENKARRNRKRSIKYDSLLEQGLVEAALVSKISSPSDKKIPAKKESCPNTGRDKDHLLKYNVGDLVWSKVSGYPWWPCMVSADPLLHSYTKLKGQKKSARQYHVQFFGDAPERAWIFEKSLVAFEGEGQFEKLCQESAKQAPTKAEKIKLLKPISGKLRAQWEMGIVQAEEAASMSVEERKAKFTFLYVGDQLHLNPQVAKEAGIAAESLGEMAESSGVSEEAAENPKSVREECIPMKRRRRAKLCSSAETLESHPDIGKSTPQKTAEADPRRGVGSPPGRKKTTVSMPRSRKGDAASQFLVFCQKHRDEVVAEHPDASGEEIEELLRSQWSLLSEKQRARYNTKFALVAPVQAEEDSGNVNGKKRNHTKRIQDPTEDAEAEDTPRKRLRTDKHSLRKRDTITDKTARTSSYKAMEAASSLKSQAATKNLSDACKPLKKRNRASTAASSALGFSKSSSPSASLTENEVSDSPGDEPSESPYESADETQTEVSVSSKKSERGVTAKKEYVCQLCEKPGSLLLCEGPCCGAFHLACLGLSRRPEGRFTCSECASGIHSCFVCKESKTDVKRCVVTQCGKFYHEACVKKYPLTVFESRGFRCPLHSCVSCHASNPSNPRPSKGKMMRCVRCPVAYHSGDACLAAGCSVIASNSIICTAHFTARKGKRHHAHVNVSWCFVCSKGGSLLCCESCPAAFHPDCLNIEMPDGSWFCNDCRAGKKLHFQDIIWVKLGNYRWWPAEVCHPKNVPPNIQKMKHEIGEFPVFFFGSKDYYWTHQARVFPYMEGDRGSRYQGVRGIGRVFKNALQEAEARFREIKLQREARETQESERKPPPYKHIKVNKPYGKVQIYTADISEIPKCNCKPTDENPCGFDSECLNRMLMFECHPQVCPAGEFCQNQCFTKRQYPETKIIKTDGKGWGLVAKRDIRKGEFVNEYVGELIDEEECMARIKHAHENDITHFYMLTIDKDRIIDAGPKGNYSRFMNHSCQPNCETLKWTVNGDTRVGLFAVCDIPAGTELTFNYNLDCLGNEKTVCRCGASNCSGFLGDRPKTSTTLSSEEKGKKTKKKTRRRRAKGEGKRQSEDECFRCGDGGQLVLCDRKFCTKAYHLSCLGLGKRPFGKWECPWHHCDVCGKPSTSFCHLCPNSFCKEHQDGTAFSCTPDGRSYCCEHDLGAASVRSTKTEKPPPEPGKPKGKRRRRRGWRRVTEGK

[6] = blockers of CRF-binding protein–CRF-R2 complex – cell-based, uHTS hits, 384-well, dose response (AID 651639); format: functional, Homo sapiens; conditions: read-out: IC50_Mean
[7] = NIH-3T3 fibroblast cytotoxicity, dose response, cytotoxicity control, cell-based, fluorescence, Alamar Blue, secondary assay (AID 2327); format: functional;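 also: NIH-3T3 mouse fibroblasts cultured with fluconazole at 8 µg/mL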
[8] = biological target: T3, RNA-binding protein pos-1 (Caenorhabditis elegans, UniProt G5EF15); experiment: disruptors of C. elegans POS-1 RNA interaction – biochemical, fluorescence polarization, dose response (AID 1964);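 also: purified POS-1 fused to maltose binding protein made in E. coli; potency of compounds blocking POS-1 binding to fluorescent RNA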
T3 sequence (G5EF15 whole entry): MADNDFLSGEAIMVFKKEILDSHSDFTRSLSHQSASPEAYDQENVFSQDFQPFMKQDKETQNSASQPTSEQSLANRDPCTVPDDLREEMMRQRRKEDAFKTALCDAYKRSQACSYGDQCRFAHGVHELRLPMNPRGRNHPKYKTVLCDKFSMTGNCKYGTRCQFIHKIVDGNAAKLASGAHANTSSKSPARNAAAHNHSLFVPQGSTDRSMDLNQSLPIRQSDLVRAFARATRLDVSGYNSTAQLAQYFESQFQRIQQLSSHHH

[9] = tested on: Streptococcus sp. 'group A'; experiment: Streptococcus pyogenes SK(-)GAS viability under kanamycin – luminescence, BacTiterGlo, confirmation, counter-screen for streptokinase expression inhibitor project, dose response (AID 1900); format: functional, organism-based
[10] = biological target: T4, Zinc finger protein mex-5 (Caenorhabditis elegans, UniProt Q9XUB2); experiment: potency of MEX-5 RNA-binding blockers – biochemical, C. elegans, fluorescence polarization, dose response (AID 1960)
T4 sequence (Q9XUB2 whole entry): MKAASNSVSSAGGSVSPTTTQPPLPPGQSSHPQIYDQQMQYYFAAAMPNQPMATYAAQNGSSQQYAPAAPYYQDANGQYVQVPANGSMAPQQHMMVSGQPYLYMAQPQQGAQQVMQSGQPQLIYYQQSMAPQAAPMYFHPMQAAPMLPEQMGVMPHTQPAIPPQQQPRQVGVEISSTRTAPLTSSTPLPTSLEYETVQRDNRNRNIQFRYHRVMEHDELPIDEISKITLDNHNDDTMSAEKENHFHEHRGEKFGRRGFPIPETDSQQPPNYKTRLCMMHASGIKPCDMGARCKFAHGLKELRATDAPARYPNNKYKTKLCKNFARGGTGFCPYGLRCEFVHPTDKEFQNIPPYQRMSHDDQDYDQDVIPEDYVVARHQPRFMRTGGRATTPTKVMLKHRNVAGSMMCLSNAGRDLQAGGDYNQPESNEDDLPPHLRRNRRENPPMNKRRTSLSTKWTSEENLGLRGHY

Streptokinase A = biological target: T5, Streptokinase A (Streptococcus pyogenes serotype M1, UniProt P10520); experiment: viability-normalized secreted streptokinase activity reduction – plasminogen activation absorbance, OD405, dose response (AID 1914); format: functional, Streptococcus pyogenes M1 GAS;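 also: secreted streptokinase activity via plasminogen activation per viability signal from cell pellet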
T5 sequence (P10520 whole entry): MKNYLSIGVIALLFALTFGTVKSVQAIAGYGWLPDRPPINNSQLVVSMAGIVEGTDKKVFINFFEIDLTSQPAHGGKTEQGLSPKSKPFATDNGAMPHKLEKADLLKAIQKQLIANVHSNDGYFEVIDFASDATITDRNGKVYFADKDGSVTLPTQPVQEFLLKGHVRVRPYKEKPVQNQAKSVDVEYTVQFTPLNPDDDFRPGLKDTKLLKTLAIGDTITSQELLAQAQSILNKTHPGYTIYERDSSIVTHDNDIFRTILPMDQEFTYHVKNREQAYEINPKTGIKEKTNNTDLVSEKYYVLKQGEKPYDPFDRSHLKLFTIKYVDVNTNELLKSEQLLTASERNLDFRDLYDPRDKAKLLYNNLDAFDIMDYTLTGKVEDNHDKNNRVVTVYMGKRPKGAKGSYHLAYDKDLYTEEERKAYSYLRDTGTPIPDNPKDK

[11] = fluconazole-exposed Candida albicans growth modulators – fluorescence, retest, confirmation (AID 2467); format: functional, cell-based
Streptococcus = experiment: GAS UMAA2166 growth inhibition – luminescence, BacTiterGlo, counter-screen for streptokinase expression inhibitor project, dose response (AID 1915); format: functional, organism-based;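 also: potency for reduction of bacterial viability or growth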
[12] = biological target: Heat shock protein HSP 90-alpha (Homo sapiens, UniProt P07900); format: functional, organism-based

Sequence of Genome polyprotein (P29990 2492-3391 limits assumed): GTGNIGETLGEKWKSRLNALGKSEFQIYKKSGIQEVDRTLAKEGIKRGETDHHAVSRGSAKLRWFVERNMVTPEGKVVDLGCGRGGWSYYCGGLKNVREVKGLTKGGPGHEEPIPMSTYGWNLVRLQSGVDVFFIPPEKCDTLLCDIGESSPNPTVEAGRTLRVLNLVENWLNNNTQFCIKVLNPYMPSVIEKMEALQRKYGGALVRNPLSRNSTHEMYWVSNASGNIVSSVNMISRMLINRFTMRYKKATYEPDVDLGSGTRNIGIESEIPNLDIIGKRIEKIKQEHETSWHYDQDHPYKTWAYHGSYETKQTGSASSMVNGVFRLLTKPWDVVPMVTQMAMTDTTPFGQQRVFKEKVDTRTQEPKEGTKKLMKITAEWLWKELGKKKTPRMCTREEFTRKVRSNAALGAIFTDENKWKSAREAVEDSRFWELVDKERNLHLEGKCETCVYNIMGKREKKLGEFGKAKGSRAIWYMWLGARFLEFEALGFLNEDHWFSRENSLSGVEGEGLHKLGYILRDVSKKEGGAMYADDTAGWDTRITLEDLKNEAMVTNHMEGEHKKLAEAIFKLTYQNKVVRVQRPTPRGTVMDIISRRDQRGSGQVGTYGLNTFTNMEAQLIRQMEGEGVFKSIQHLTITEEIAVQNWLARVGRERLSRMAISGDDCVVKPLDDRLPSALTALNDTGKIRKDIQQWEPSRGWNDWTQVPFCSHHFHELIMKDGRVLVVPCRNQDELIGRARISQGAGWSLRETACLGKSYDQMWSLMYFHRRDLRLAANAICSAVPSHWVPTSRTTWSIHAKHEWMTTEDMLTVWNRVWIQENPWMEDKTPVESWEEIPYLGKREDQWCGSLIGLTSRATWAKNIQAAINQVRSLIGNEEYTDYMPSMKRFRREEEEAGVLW

Compound: CC(=O)c1sc(C(=O)O)c(-c2ccco2)c1-c1ccco1
- IC50 [1]: 15.5 µM (active)

Compound: CCOC(=O)c1c2c(n(-c3ccc(OC)cc3)c1C)C(=O)C(=O)c1ccccc1-2
- CC50 (Vero): 2.89 µM (active)
- IC50 (Genome polyprotein): 47 µM (active)
- AC50 [2]: 3.15 µM (active)
- AC50 [3]: 3.74 µM (active)
- AC50 [4]: 3 µM (active)

Compound: O=C(/C=C/c1ccco1)NCC(=O)N/N=C/c1ccc([N+](=O)[O-])cc1
- IC50 [1]: 5.25 µM (active)

Compound: N=C1/C(=C\c2ccc(Br)o2)C(=O)N=C2SC(CC(=O)N3CCOCC3)=NN12
- IC50 [1]: 18.3 µM (active)
- AC50 [5]: > 20 µM (inactive)

Compound: COc1cc(N=C(S)NCCC(c2ccccc2)c2ccccc2)c(OC)cc1Cl
- IC50 [6]: > 20 µM (inactive)

Compound: CC(C)C1Nc2c(O)cc(Cl)c([N+](=O)[O-])c2C2C=CCC21 (stereo unspecified)
- EC50 [7]: 21.9 µM (inconclusive)
- EC50 [8]: > 300 µM (not active)
- EC50 [9]: 3.07 µM (active)
- EC50 [10]: 58.5 µM (active)
- EC50 (Streptokinase A): > 150 µM (not active)
- EC50 [11]: 0.227 µM (active)
- EC50 (Streptococcus): 6.36 µM (active)
- AC50 [12]: 8.49 µM (active)
- CC50 (Vero): 27.8 µM (active)
- IC50 (Genome polyprotein): 68.9 µM (active)

Compound: N#CN=C(Nc1cccc(F)c1)SCc1ccccc1
- IC50 [6]: > 20 µM (inactive)

Source: ChEMBL document CHEMBL1201862, “PubChem BioAssay data set” (2004)
